In ChEMBL document CHEMBL1201862, “PubChem BioAssay data set” (2004):
Activity calls are given as the source filed them.

Assays:
[1] = THP-1 cell cytotoxicity, dose response, cytotoxicity control for non-replicating M. tuberculosis project (AID 489025); assay type: functional
Kallikrein-7 = Kallikrein-7 (Homo sapiens, UniProt P49862); test: Fluorescence Intensity-based biochemical primary high throughput dose response assay to identify activators of kallikrein-7 (K7) zymogen.
cells = assay type: functional
[2] = toxicity toward HepG2 liver cells – cell-based, plate reader, cherry-pick, antagonist series, cytotoxicity control, dose response (AID 743416); assay type: functional
[3] = A549 cell cytotoxicity, dose response, cytotoxicity control, plate reader, cherry-pick, antagonist series (AID 743412); assay type: functional, cell-based
[4] = blockade of melanocortin 4 receptor signaling – cell-based, plate reader, cherry pick, counter-screen for LGR2 antagonist project, dose response (AID 743444); assay type: functional;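 note: transfected HEK 293 cells stimulated with alpha-MSH peptide; potency of inhibitors of the alpha-MSH evoked signal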
[5] = blockers of bursicon-stimulated LGR2 cAMP reporter – cell-based, HEK293, CRE-luciferase reporter, cherry pick, set 2, dose response (AID 743343); assay type: functional;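 note: transfected cells were stimulated with diluted bursicon conditioned medium after compound addition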
[6] = Trypanosoma cruzi growth suppression in host cells – NIH3T3 host cells, beta-gal luminescence, confirmation (AID 2044); assay type: functional, cell-based;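 note: intracellular parasites grown in NIH/3T3 mouse fibroblasts as host cells; luminescent beta-galactosidase reporter signal from transgenic T. cruzi replicating inside host cells; inhibitors lower the luminescence signal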
[7] = NIH3T3 cell viability loss – ATP luminescence, mouse fibroblasts, counter-screen, dose response (AID 2010); assay type: functional, cell-based;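 note: cells exposed to compound for about 90 hours before reading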
[8] = biological target: T1, Mannose-6-phosphate isomerase (Homo sapiens, UniProt P34949); test: MPI inhibition at elevated mannose 6-phosphate – biochemical, fluorescence intensity, high mannose 6-phosphate, primary screen (AID 1220)
T1 sequence (P34949 whole entry): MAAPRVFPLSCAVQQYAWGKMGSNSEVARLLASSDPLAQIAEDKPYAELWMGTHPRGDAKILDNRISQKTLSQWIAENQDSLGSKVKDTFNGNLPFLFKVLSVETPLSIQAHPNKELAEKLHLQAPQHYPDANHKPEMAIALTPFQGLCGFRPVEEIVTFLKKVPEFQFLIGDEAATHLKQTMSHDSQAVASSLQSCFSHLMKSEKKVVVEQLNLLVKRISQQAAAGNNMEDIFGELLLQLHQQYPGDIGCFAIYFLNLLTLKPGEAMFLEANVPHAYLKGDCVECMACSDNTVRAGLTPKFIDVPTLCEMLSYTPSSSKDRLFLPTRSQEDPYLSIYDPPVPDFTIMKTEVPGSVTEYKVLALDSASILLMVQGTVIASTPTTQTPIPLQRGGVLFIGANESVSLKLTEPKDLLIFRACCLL

INS1 = test: INS-1E survival protection against cytokine death – cell-based, luminescence, retest, dose response (AID 449756); assay type: functional; details: Rattus norvegicus;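 note: cell death triggered by IL-1 beta plus TNF-alpha plus IFN-gamma mixture; protective hits raise ATP signal compared with cytokine alone wells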
[9] = biological target: T2, Heat shock factor protein 1 (Mus musculus, UniProt P38532); test: decrease of HSF1-responsive luciferase luminescence – cell-based, NIH3T3, dose retest, confirmation (AID 2382); assay type: functional;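 note: NIH3T3 fibroblasts with HSF1-driven luciferase reporter stressed by proteasome inhibitor MG132; luminescence from HSF1-driven luciferase expression after 8 hours of MG132 stress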
T2 sequence (P38532 whole entry): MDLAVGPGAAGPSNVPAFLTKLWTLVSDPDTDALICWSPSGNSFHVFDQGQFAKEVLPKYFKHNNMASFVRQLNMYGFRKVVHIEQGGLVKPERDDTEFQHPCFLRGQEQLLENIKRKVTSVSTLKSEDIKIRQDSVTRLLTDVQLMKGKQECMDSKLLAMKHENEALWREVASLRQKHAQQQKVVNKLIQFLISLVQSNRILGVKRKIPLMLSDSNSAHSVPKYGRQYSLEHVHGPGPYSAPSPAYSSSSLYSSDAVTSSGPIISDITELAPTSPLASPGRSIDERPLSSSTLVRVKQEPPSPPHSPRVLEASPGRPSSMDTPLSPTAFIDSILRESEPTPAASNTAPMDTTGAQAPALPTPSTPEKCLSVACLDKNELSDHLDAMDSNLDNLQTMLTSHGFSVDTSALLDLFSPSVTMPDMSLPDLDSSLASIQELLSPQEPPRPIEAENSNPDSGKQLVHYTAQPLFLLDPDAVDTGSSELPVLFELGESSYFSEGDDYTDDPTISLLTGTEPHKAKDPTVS

[10] = biological target: Induced myeloid leukemia cell differentiation protein Mcl-1 (Homo sapiens, UniProt Q07820); assay type: functional
Sequence of Induced myeloid leukemia cell differentiation protein Mcl-1 (Q07820 whole entry): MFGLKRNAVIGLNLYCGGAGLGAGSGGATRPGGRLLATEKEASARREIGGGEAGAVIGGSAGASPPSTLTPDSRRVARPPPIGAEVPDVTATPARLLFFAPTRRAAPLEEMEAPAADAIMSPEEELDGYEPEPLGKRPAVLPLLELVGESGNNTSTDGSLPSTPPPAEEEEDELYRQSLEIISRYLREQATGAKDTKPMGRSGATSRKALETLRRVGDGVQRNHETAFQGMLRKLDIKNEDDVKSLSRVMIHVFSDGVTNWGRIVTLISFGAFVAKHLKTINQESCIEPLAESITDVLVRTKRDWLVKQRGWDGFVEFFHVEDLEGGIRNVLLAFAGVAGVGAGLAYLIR

[11] = biological target: T3, Sentrin-specific protease 7 (Homo sapiens, UniProt Q9BQF6); assay type: functional;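 note: Luminescence-based dose-response confirmation of ultra-high-throughput screening hits, measuring inhibition of SENP7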
T3 sequence (Q9BQF6 whole entry): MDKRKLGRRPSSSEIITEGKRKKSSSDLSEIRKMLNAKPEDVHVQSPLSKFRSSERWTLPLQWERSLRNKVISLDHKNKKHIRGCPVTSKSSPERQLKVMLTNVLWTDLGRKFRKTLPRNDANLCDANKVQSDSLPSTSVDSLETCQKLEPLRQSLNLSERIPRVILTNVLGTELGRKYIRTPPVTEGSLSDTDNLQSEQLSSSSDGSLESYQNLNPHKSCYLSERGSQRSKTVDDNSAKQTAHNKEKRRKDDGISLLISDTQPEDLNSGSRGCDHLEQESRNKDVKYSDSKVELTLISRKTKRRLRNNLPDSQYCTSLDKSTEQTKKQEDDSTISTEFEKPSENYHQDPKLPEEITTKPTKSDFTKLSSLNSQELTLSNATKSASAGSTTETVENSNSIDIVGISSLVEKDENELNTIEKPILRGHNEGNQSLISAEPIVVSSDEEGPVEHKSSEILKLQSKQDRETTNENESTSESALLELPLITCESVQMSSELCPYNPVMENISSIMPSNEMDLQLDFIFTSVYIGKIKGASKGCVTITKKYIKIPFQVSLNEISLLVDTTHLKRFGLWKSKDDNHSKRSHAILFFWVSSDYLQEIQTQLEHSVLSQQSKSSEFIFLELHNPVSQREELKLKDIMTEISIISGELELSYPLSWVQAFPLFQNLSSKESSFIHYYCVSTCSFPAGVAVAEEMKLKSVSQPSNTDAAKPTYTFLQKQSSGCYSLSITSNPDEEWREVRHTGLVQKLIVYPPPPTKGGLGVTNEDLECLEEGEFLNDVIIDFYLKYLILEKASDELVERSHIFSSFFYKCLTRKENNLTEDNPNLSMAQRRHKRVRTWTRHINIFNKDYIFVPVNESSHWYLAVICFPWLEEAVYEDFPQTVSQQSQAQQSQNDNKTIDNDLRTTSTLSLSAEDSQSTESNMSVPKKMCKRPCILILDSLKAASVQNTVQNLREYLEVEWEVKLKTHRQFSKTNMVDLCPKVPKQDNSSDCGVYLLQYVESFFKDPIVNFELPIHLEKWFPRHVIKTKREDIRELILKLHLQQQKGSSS

Caspase-3 = biological target: T4, Caspase-3 (Homo sapiens, UniProt P42574); assay type: functional;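 note: Dose-response selectivity test against caspase-3 for candidate inhibitors of sentrin-specific proteases (SENPs)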
T4 sequence (P42574 whole entry): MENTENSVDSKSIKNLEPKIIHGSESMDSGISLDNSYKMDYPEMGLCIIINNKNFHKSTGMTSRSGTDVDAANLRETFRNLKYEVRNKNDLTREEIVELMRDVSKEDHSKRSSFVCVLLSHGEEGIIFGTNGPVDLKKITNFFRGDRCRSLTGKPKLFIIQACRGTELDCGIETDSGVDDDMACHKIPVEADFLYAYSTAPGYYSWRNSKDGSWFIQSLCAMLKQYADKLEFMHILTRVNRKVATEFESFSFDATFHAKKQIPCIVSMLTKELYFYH

[12] = biological target: T5, Sentrin-specific protease 6 (Homo sapiens, UniProt Q9GZR1); assay type: functional;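 note: Luminescence-based dose-response confirmatory assay of SENP6 inhibition, following up an ultra-high-throughput screen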
T5 sequence (Q9GZR1 whole entry): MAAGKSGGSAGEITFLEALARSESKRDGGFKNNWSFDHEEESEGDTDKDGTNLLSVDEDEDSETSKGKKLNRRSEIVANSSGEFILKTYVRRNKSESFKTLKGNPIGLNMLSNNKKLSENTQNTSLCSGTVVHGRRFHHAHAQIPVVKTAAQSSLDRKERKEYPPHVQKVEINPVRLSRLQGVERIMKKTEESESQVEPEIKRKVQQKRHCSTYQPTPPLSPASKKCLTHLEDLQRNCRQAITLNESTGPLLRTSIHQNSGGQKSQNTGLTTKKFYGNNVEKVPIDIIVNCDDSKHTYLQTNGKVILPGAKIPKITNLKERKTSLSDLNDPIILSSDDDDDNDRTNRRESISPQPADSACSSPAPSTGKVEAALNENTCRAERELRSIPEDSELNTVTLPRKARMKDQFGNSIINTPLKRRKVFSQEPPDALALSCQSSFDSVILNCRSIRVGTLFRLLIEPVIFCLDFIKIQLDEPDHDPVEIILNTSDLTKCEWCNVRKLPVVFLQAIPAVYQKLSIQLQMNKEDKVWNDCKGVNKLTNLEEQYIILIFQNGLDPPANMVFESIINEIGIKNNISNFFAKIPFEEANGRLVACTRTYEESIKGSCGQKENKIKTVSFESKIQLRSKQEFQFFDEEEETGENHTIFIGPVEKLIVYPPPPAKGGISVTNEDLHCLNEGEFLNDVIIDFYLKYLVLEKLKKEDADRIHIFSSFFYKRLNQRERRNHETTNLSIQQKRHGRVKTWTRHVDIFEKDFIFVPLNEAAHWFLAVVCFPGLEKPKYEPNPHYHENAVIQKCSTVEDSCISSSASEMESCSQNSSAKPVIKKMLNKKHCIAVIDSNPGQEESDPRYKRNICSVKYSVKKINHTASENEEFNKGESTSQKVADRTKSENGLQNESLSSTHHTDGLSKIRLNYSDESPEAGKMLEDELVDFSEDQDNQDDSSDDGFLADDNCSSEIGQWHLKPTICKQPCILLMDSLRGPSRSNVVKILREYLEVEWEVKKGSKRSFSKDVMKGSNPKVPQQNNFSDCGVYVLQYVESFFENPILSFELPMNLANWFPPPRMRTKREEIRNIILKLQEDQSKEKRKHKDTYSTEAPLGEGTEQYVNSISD

[13] = biological target: T6, Sentrin-specific protease 8 (Homo sapiens, UniProt Q96LD8); assay type: functional;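 note: luminescence read-out of SENP8 inhibition, dose-response confirmation following an ultra-high-throughput screen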
T6 sequence (Q96LD8 whole entry): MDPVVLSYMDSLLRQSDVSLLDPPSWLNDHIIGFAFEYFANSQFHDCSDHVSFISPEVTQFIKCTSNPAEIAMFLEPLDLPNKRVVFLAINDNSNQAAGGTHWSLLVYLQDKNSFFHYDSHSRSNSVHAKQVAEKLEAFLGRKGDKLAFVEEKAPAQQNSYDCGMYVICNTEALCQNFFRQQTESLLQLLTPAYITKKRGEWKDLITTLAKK

[14] = Luminescence Cell-Based Dose Confirmation HTS to Identify Inhibitors of Platelet Dense Granule Release. [Related pubchem assays: 1663 (Primary HTS), 1678 (Summary of Project)]; assay type: functional
[15] = biological target: Luciferin 4-monooxygenase (Photinus pyralis, UniProt P08659); test: inhibition of purified Photinus pyralis luciferase – biochemical, luminescence, dose response (AID 1891)
Sequence of Luciferin 4-monooxygenase (P08659 whole entry): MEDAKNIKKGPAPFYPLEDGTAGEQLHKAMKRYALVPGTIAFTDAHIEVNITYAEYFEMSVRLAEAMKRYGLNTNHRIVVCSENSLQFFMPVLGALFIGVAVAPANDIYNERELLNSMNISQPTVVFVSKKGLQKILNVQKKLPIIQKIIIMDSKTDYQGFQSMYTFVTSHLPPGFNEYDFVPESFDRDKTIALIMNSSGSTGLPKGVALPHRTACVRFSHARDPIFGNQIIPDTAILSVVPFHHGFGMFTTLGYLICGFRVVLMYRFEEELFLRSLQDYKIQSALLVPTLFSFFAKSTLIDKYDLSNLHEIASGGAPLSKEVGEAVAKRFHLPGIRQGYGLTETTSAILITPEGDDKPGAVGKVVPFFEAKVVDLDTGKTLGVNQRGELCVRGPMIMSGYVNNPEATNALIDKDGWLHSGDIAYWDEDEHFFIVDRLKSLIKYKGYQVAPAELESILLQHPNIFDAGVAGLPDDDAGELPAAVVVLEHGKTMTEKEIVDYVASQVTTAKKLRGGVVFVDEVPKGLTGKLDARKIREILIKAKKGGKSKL

Sequence of Kallikrein-7 (P49862 whole entry): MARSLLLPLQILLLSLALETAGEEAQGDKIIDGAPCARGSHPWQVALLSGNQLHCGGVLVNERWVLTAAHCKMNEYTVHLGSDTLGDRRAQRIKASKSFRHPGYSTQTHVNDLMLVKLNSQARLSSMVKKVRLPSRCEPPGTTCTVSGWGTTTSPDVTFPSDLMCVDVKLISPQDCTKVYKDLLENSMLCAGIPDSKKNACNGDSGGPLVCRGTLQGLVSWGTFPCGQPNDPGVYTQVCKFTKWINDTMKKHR

CCc1cccc(OCCCn2ccnc2)c1
CC50 [1]: > 40 µM (active)

O=C(Nc1ccc2c(c1)C(=O)NC2=O)c1ccc(S(=O)(=O)N2CCCC2)cc1
EC50 (Kallikrein-7): 8.55 µM (active)

COC(=O)COc1cccc(NC(=O)COc2ccccc2)c1
IC50 (cells): 1.65 µM (active)
CC50 [1]: > 40 µM (active)

Cc1cccc(-n2c(SCC(=O)N3CCCC3)nc3nnc(C)c-3c2N)c1
EC50 (Kallikrein-7): 13.3 µM (inactive)

O=C(Nc1nc2ccccc2[nH]1)c1ccc(Cl)cc1
AC50 [2]: 29.5 µM (active)
AC50 [3]: 29.1 µM (active)
AC50 [4]: 6.33 µM (active)
AC50 [5]: 10.1 µM (active)

CC(C)(C)C1=CC(=O)C(=O)C(C(C)(C)C)=C1
EC50 [6]: 0.62 µM (active)
EC50 [7]: 7.34 µM (active)
IC50 [8]: 9.84 µM (active)

COCCN(CCOC)c1cc(C)c(C#N)c2nc3ccccc3n12
EC50 (Kallikrein-7): 11.2 µM (inactive)

O=C(NC1CCCCCC1)c1cc2c(=O)n3ccccc3nc2s1
EC50 (Kallikrein-7): > 69.5 µM (inactive)

CC(=O)c1ccc(Nc2nc(-c3sc(C)nc3C)cs2)cc1
AC50 [2]: 2.87 µM (active)
AC50 [3]: 2.08 µM (active)
AC50 [4]: 34 µM (active)
AC50 [5]: 21.8 µM (active)

O=C(c1ccc([N+](=O)[O-])s1)N1CCN(c2cccc(Cl)c2)CC1
AC50 (INS1): 7.83 µM (active)
EC50 [9]: > 195 µM (not active)
IC50 (cells): 1.11 µM (active)
CC50 [1]: 35.6 µM (active)

O=C(Nc1ccc2nc3ccccc3nc2c1)c1ccccc1
EC50 (Kallikrein-7): > 69.5 µM (inactive)
IC50 [10]: > 54 µM (active)

O=C(O)c1ccc(/C=N/NC(=O)c2cc(-c3cccs3)nc3ccccc23)cc1
EC50 (Kallikrein-7): 49.6 µM (inactive)

COCCn1c(C)cc(C(=O)CSc2nc3ccccc3s2)c1C
IC50 [11]: 8.92 µM (active)
AC50 [2]: 41.8 µM (active)
IC50 (Caspase-3): 26.4 µM (active)
AC50 [4]: 6.46 µM (active)
AC50 [5]: 3.81 µM (active)
IC50 [12]: 27.4 µM (active)
IC50 [13]: 83.7 µM (active)

CCc1cc(N2CCOCC2)cc2c1[nH]c1ccccc12
IC50 [8]: > 50 µM (not active)

COC(=O)C1=CNC=C(C(=O)OC)C1c1ccc(C(=O)OC)cc1
EC50 (Kallikrein-7): > 69.5 µM (inactive)

CCC/C(=N\NC(=O)c1ccco1)c1ccc(Cl)s1
IC50 (cells): 13.9 µM (active)
CC50 [1]: > 40 µM (active)

CCCCN1C(=O)/C(=N\c2cccc3cnccc23)c2ccccc21
EC50 [14]: > 112 µM (not active)
EC50 [15]: > 112 µM (not active)
IC50 [8]: > 50 µM (not active)
